Like-named read-outs stand apart in the source and are kept apart here.
Legend:
[1] = system: TREK-1; settings: cited from earlier work; for reduction of TREK-1 activity: antidepressants
Protocol: (§1) Because of the typical linear I–V relationship of astrocytic passive conductance, it has been speculated that astrocytic passive conductance is carried by non-voltage-gated K^+ channels.

[2] = system: astrocytic passive conductance in mouse hippocampal slices; experiment: Whole-cell patch clamp of astrocytic passive conductance in hippocampal slices; assay type: cell-based, mouse (C57BL/6); settings: quinidine 200 μM versus spadin 10 μM
Protocol: Lentiviruses were injected into hippocampal CA1 region (AP: 0.17, ML: 0.17, DV: 0.19) of 7–8 week-old wild-type C57BL/6 mice. The virus-infected mouse brain slices (350 μm) containing the hippocampus were […]. Individual hippocampal slices were transferred to a recording chamber, which was constantly perfused with artificial cerebrospinal fluid (ACSF) recording solution containing (in mM) 130 NaCl, 24 NaHCO3, 3.5 KCl, 1.25 NaH2PO4, 1.5 CaCl2, 1.5 MgCl2, and 10 glucose saturated with 95% O2–5% CO2 at pH 7.4. Brain slices were co-loaded with SR-101 (Sigma Aldrich, St. Louis, MO, USA; 1 mM) dye to identify the location of astrocytes in the CA1 region. The slices were recovered at room temperature for at least 1 h before SR101 incubation and electrophysiological recording. […] Whole-cell patch recordings were performed on hippocampal astrocytes with a voltage-clamp configuration using an Axopatch 700B (Axon Instruments, Union City, CA, USA). All data are presented as means ± standard error of the mean (s.e.m). The significance of data for comparison was assessed by Student’s t-test (paired t-test) or one-way ANOVA followed by Turkey’s post hoc test, and significance levels are given as: n.s: not significant, * p < 0.05, ** p < 0.01, *** p < 0.001, and **** p < 0.0001. […]

[3] = system: TWIK-1 (K274E); settings: 100 μM quinine; cited from earlier work
Protocol: as §1

[4] = system: astrocytic passive conductance; settings: 200 μM quinine; cited from earlier work
Protocol: as §1

[5] = conventional K^+ channel blockers

SMILES: Nc1ccncn1 [4-aminopyrimidine]
- TREK-1 channel activity [1, 5]: not

SMILES: CCCCC/C=C\C/C=C\C/C=C\C/C=C\CCCC(=O)O [AA, arachidonic acid]
- TREK-1 channel activation [1]: activated

SMILES: CNCCC(Oc1ccc(C(F)(F)F)cc1)c1ccccc1 (centres unmarked) [Fluoxetine]
- reduction of TREK-1 activity [1]: effective in the reduction of TREK-1 activity

SMILES: Fc1ccc([C@@H]2CCNC[C@H]2COc2ccc3c(c2)OCO3)cc1 [paroxetine]
- reduction of TREK-1 activity [1]: effective in the reduction of TREK-1 activity

SMILES: C=C[C@H]1C[N@@]2CC[C@H]1C[C@@H]2[C@@H](O)c1ccnc2ccc(OC)cc12 [quinidine]
- concentration required for similar inhibition of passive conductance [2]: required at a much higher concentration than spadin
- TREK-1 channel activity ([1]; high-dose quinine or quinidine): affected

SMILES: C=C[C@H]1C[N@@]2CC[C@H]1C[C@H]2[C@H](O)c1ccnc2ccc(OC)cc12 [quinine]
- cloned TREK-1 current ([1]; 100 μM quinine): potently decreases
- TREK-1 channel activity ([1]; high-dose quinine or quinidine): affected
- cloned TWIK-1 (K274E) current [3]: potently decreases
- inhibition of astrocytic passive conductance [4]: 58%

SMILES: CC[N+](CC)(CC)CC [tetraethylammonium]
- TREK-1 channel activity [1, 5]: not

Reference: article PMC7765948, “Spadin Modulates Astrocytic Passive Conductance via Inhibition of TWIK-1/TREK-1 Heterodimeric Channels” (International Journal of Molecular Sciences, 2020)
